Test system: spinal cord transcriptome
Test: RNA-Seq of spinal cord tissue from 2B/- and 2B/+ mice
Assay type: in vivo, mouse
[1] = spinal cord, 2B/- RG3039 vs 2B/- vehicle, adjusted p-value 2.55E-55

Nc1nc(N)c2c(OCC3CCN(Cc4c(Cl)cccc4Cl)CC3)cccc2n1 [RG3039]
log2(fold-change) (2B-Veh vs 2B-RG3039, gene Osbpl3): 0.3051
log2(fold-change) (2B-Veh vs 2B-RG3039, gene Phf13): 0.2527
log2(fold-change) (2B-Veh vs 2B-RG3039, gene Pigz): -0.3408
log2(fold-change) (2B-Veh vs 2B-RG3039, gene Pik3r1): -0.2417
log2(fold-change) (2B-Veh vs 2B-RG3039, gene Plcb1): -0.2064
log2(fold-change) (2B-Veh vs 2B-RG3039, gene Pld2): 0.3673
log2(fold-change) (2B-Veh vs 2B-RG3039, gene Prr18): -0.2462
log2(fold-change) (2B-Veh vs 2B-RG3039, gene Ptbp1): 0.3576
log2(fold-change) (2B-Veh vs 2B-RG3039, gene Ptpdc1): -0.3585
log2(fold-change) (2B-Veh vs 2B-RG3039, gene Pvrl3): 0.3266
log2(fold-change) (2B-Veh vs 2B-RG3039, gene Rab31): -0.2849
log2(fold-change) (2B-Veh vs 2B-RG3039, gene Ralb): 0.1805
log2(fold-change) (2B-Veh vs 2B-RG3039, gene Rapgef3): -0.3391
log2(fold-change) (2B-Veh vs 2B-RG3039, gene Rasal1): -0.2345
log2(fold-change) (2B-Veh vs 2B-RG3039, gene Rgs19): 0.2532
log2(fold-change) (2B-Veh vs 2B-RG3039, gene Serpina3n): -0.2457
log2(fold-change) (2B-Veh vs 2B-RG3039, gene Sh3pxd2a): 0.3024
log2(fold-change) (2B-Veh vs 2B-RG3039, gene Slc39a11): 0.2556
log2(fold-change) (2B-Veh vs 2B-RG3039, gene Sox13): 0.3712
log2(fold-change) (2B-Veh vs 2B-RG3039, gene Spon1): -0.207
log2(fold-change) (2B-Veh vs 2B-RG3039, gene Srsf9): 0.255
log2(fold-change) (2B-Veh vs 2B-RG3039, gene Stxbp3a): -0.2437
log2(fold-change) (2B-Veh vs 2B-RG3039, gene Swap70): 0.2496
log2(fold-change) (2B-Veh vs 2B-RG3039, gene Tfrc): 0.316
log2(fold-change) (2B-Veh vs 2B-RG3039, gene Tlcd1): 0.158
log2(fold-change) (2B-Veh vs 2B-RG3039, gene Tmod1): -0.2447
log2(fold-change) (2B-Veh vs 2B-RG3039, gene Tubb2b): 0.2818
log2(fold-change) (2B-Veh vs 2B-RG3039, gene Vgf): 0.2475
log2(fold-change) (2B-Veh vs 2B-RG3039, gene Vps37b): 0.2543
log2(fold-change) (2B-Veh vs 2B-RG3039, gene Wbscr27): -0.2613
log2(fold-change) (2B-Veh vs 2B-RG3039, gene Wnt7b): 0.3209
log2(fold-change) (2B-Veh vs 2B-RG3039, gene Zfp276): -0.2722
log2(fold-change) (2B-Veh vs 2B-RG3039, gene Zfp692): -0.2503
log2(fold-change) (2B-Veh vs 2B-RG3039, gene Zfp839): -0.2535
log2(fold-change) (2B-Veh vs 2B-RG3039, gene Zhx3): -0.2128
log2(fold-change) (2B-Veh vs 2B-RG3039, gene Zmat1): -0.3673
log2(fold-change) (mouse, in vivo): 0.2853
log2(fold-change) Chodl transcript (spinal cord RNA-Seq, 2B- RG vs. 2B+ Veh (sheet WT-Veh_vs_2B-859_all), adjusted p-value 1.03E-56): -2.122
log2(fold-change) 4632404H12Rik transcript (spinal cord RNA-Seq, 2B- RG vs. 2B+ Veh (sheet WT-Veh_vs_2B-859_all), adjusted p-value 1.30E-36): 1.504
log2(fold-change) Spp1 transcript (spinal cord RNA-Seq, 2B- RG vs. 2B+ Veh (sheet WT-Veh_vs_2B-859_all), adjusted p-value 1.87E-42): -1.107
log2(fold-change) Gm26924 transcript (spinal cord RNA-Seq, 2B- RG vs. 2B+ Veh (sheet WT-Veh_vs_2B-859_all), adjusted p-value 5.93E-43): -1.355
log2(fold-change) Ahnak2 transcript (spinal cord RNA-Seq, 2B- RG vs. 2B+ Veh (sheet WT-Veh_vs_2B-859_all), adjusted p-value 8.66E-40): -1.26
log2(fold-change) Tgtp1 transcript (spinal cord RNA-Seq, RG3039 2B/- vs. vehicle 2B/-, adjusted p-value 0.000273937): 1.848
log2(fold-change) Cfd transcript (spinal cord RNA-Seq, RG3039 2B/- vs. vehicle 2B/-, adjusted p-value 0.000300401): -2.755
log2(fold-change) Kcnb2 transcript (spinal cord RNA-Seq, RG3039 2B/- vs. vehicle 2B/-, adjusted p-value 0.000330855): 1.602
log2(fold-change) Fabp4 transcript (spinal cord RNA-Seq, RG3039 2B/- vs. vehicle 2B/-, adjusted p-value 0.000349974): -2.327
log2(fold-change) Reg3b transcript (spinal cord RNA-Seq, RG3039 2B/- vs. vehicle 2B/-, adjusted p-value 0.00104281): 1.9386
log2(fold-change) Saa3 transcript (spinal cord RNA-Seq, RG3039 2B/- vs. vehicle 2B/-, adjusted p-value 0.0020931): -2.03
log2(fold-change) Tgtp2 transcript (spinal cord RNA-Seq, RG3039 2B/- vs. vehicle 2B/-, adjusted p-value 0.00223451): 1.688
log2(fold-change) Slfn10-ps transcript (spinal cord RNA-Seq, RG3039 2B/- vs. vehicle 2B/-, adjusted p-value 0.00233365): 1.807
log2(fold-change) Gm10629 transcript (spinal cord RNA-Seq, RG3039 2B/- vs. vehicle 2B/-, adjusted p-value 0.00341009): 1.585
log2(fold-change) Myh4 transcript (spinal cord RNA-Seq, RG3039 2B/- vs. vehicle 2B/-, adjusted p-value 0.0039906): -2.1375
log2(fold-change) Amtn transcript (spinal cord RNA-Seq, RG3039 2B/- vs. vehicle 2B/-, adjusted p-value 0.00445577): 1.585
log2(fold-change) Gm21807 transcript (spinal cord RNA-Seq, RG3039 2B/- vs. vehicle 2B/-, adjusted p-value 0.00737848): 1.663
log2(fold-change) Ak3l2-ps transcript (spinal cord RNA-Seq, RG3039 2B/- vs. vehicle 2B/-, adjusted p-value 0.0076012): 1.688
log2(fold-change) Gm25014 transcript (spinal cord RNA-Seq, RG3039 2B/- vs. vehicle 2B/-, adjusted p-value 0.00761921): 1.585
log2(fold-change) Mrgprd transcript (spinal cord RNA-Seq, RG3039 2B/- vs. vehicle 2B/-, adjusted p-value 0.0177741): 1.807
log2(fold-change) Ucp1 transcript (spinal cord RNA-Seq, RG3039 2B/- vs. vehicle 2B/-, adjusted p-value 0.0259172): -1.858
log2(fold-change) Scn10a transcript (spinal cord RNA-Seq, RG3039 2B/- vs. vehicle 2B/-, adjusted p-value 0.0498434): 1.7
log2(fold-change) 4930481A15Rik transcript (spinal cord RNA-Seq, RG3039 2B/- vs. vehicle 2B/-, adjusted p-value 1.16E-05): -2.273
log2(fold-change) Gm13558 transcript (spinal cord RNA-Seq, RG3039 2B/- vs. vehicle 2B/-, adjusted p-value 1.21E-05): -2
log2(fold-change) Itga2 transcript (spinal cord RNA-Seq, RG3039 2B/- vs. vehicle 2B/-, adjusted p-value 1.25E-05): 1.883
log2(fold-change) Ifi44 transcript (spinal cord RNA-Seq, RG3039 2B/- vs. vehicle 2B/-, adjusted p-value 1.41E-22): 2.678
log2(fold-change) Etnppl transcript (spinal cord RNA-Seq, RG3039 2B/- vs. vehicle 2B/-, adjusted p-value 2.00E-23): -2.764
log2(fold-change) Ada transcript (spinal cord RNA-Seq, RG3039 2B/- vs. vehicle 2B/-, adjusted p-value 2.62E-17): -2.097
log2(fold-change) Sgk1 transcript (spinal cord RNA-Seq, RG3039 2B/- vs. vehicle 2B/-, adjusted p-value 2.77E-28): -1.812
log2(fold-change) Dpep1 transcript (spinal cord RNA-Seq, RG3039 2B/- vs. vehicle 2B/-, adjusted p-value 3.30E-07): -2.385
log2(fold-change) Tmem52 transcript (spinal cord RNA-Seq, RG3039 2B/- vs. vehicle 2B/-, adjusted p-value 3.37E-32): -2.209
log2(fold-change) A830073O21Rik transcript (spinal cord RNA-Seq, RG3039 2B/- vs. vehicle 2B/-, adjusted p-value 3.74E-09): 1.69
log2(fold-change) Usp18 transcript (spinal cord RNA-Seq, RG3039 2B/- vs. vehicle 2B/-, adjusted p-value 4.16E-13): 1.709
log2(fold-change) Slc10a6 transcript (spinal cord RNA-Seq, RG3039 2B/- vs. vehicle 2B/-, adjusted p-value 4.39E-06): -2.443
log2(fold-change) Oas1a transcript (spinal cord RNA-Seq, RG3039 2B/- vs. vehicle 2B/-, adjusted p-value 4.66E-07): 1.712
log2(fold-change) Plin4 transcript (spinal cord RNA-Seq, RG3039 2B/- vs. vehicle 2B/-, adjusted p-value 4.90E-27): -3.356
log2(fold-change) Map3k6 transcript (spinal cord RNA-Seq, RG3039 2B/- vs. vehicle 2B/-, adjusted p-value 5.02E-31): -2.942
log2(fold-change) 8430408G22Rik transcript (spinal cord RNA-Seq, RG3039 2B/- vs. vehicle 2B/-, adjusted p-value 5.30E-09): -1.92
log2(fold-change) Fmo2 transcript (spinal cord RNA-Seq, RG3039 2B/- vs. vehicle 2B/-, adjusted p-value 6.18E-07): -2.118
log2(fold-change) Tmem82 transcript (spinal cord RNA-Seq, RG3039 2B/- vs. vehicle 2B/-, adjusted p-value 7.17E-13): -2.075
log2(fold-change) Sds transcript (spinal cord RNA-Seq, RG3039 2B/- vs. vehicle 2B/-, adjusted p-value 7.23E-13): -2.356
log2(fold-change) Gp2 transcript (spinal cord RNA-Seq, RG3039 2B/- vs. vehicle 2B/-, adjusted p-value 7.46E-06): 1.536
log2(fold-change) Gm11827 transcript (spinal cord RNA-Seq, RG3039 2B/- vs. vehicle 2B/-, adjusted p-value 7.82E-08): -2.193
log2(fold-change) Chml transcript (spinal cord RNA-Seq, RG3039 2B/- vs. vehicle 2B/-, adjusted p-value 8.74E-18): 1.585
log2(fold-change) Gm15622 transcript (spinal cord RNA-Seq, RG3039 2B/- vs. vehicle 2B/-, adjusted p-value 9.01E-05): 2.027
share of detectable genes modulated (spinal cord, 2B/+ control mice): less than 0.5%
log2(fold-change), gene Mt1 (spinal cord, 2B/- RG3039 vs 2B/- vehicle, adjusted p-value 1.29E-57): -1.302
log2(fold-change), gene Polr3e (spinal cord, 2B/- RG3039 vs 2B/- vehicle, adjusted p-value 1.67E-54): -1.443
log2(fold-change), gene Fam107a [1]: -1.657
log2(fold-change), gene Fkbp5 [1]: -1.583
log2(fold-change), gene Mt2 (spinal cord, 2B/- RG3039 vs 2B/- vehicle, adjusted p-value 2.67E-76): -1.696
Smn transcripts as detected by RNA-Seq (spinal cord, 2B/- SMA mice): did not appear to increase Smn transcripts
share of the measurable genes with altered expression (spinal cord, 2B/- SMA mice RG3039 vs vehicle): approximately 26.8%
genes with significantly (P < 0.05) altered expression (spinal cord, 2B/- SMA mice RG3039 vs vehicle-treated 2B/-): 5,497 genes
genes affected in opposite directions by disease and by compound treatment (spinal cord, 2B/- mice): 591 genes
ZPR1 expression in whole spinal cord by RNA-seq (vehicle vs RG3039 treated SMA mice): no difference in ZPR1 expression
